Literature values, collected in US12471595B2, “Liquid pesticidal composition” (SUMITOMO CHEMICAL COMPANY, LIMITED, priority 2019, dated 2025).

Key:
[1] = 1-octanol/water
[2] = pH7

Row | Compound | log P at 25° C. [1] | Water solubility at 25° C. [2] [mass ppm]
1 | CCOC(=O)COc1ncccc1Oc1cc(-n2c(=O)cc(C(F)(F)F)n(C)c2=O)c(F)cc1Cl [Compound A, Ethyl 2-[(3-{2-chloro-4-fluoro-5-[3-methyl-4-(trifluoromethyl)-2,6-dioxo-1,2,3,6-tetrahydropyrimidin-1(2H)-yl]phenoxy}pyridin-2-yl)oxy]acetate] | 3.5 | 2.0
2 | CC(O)(Cn1cncn1)c1ccc(Oc2ccc(Cl)cc2)cc1C(F)(F)F (stereo not shown) [Mefentrifluconazole] | 3.4 | 0.81
3 | CON(C(=O)c1cn(C)nc1C(F)F)C(C)Cc1c(Cl)cc(Cl)cc1Cl (stereo not shown) [Pydiflumetofen] | 3.8 | 1.5
4 | COC(=O)N(OC)c1ccccc1COc1ccn(-c2ccc(Cl)cc2)n1 [Pyraclostrobin] | 4.0 | 1.9
5 | Cc1nnc(Cl)c(-c2c(F)cccc2F)c1-c1ccccc1 [Pyridachlometyl] | 4.1 | 0.6
